Results: patent publication US20230255953A1, “USE OF ROLUPERIDONE IN PREVENTING RELAPSE IN SCHIZOPHRENIA PATIENTS” (Minerva Neurosciences, Inc., priority 2022, published 2023)

Tested on: patients with negative symptoms of schizophrenia
Experiment: Integrated analysis (pooled ITT): PSP Total score
Format: in vivo, human
Design: key to PSP Total score, LS mean change from Baseline compared with placebo / PSP Total Score change from Baseline, Median: change in PSP Total score (scale 1-100, higher = better functioning)
Conditions: for PSP Total Score change from Baseline, LS mean (SE) / PSP Total Score change from Baseline, Mean (SD) / PSP Total Score change from Baseline, Median / PSP Total Score, Difference (95% CI) in LS mean (vs placebo): DB; for PSP Total Score change from Baseline, LS mean (SE) / PSP Total Score change from Baseline, Mean (SD) / PSP Total Score change from Baseline, Median / PSP Total Score, Difference (95% CI) in LS mean (vs placebo) / PSP Total score, LS mean change from Baseline compared with placebo: pooled ITT; for PSP Domain Disturbing and Aggressive Behavior, Change from Baseline (LS Means [SEM]) / PSP Domain Personal and Social Relationships, Change from Baseline (LS Means [SEM]) / PSP Domain Self-Care, Change from Baseline (LS Means [SEM]) / PSP Domain Socially Useful Activities, Change from Baseline (LS Means [SEM]) / PSP Total Score, Change from Baseline (LS Means [SEM]): ITT; for Patients with high improvement in PSP Total score (magnitude of change ≥10) / Patients with moderate improvement in PSP Total score (magnitude of change 7-9) / Patients with moderate or high improvement in PSP Total score, total: pooled; for Patients with 7-Point Improvement in PSP Total Score at Week 12, percent / Number of Patients with 7-Point improvement in PSP Total Score at Week 12: responder analysis; for Number of Patients with 7-Point improvement in PSP Total Score at Week 12: n/N
Text: The primary integrated analysis of the efficacy of Roluperidone compared with placebo for the treatment of negative symptoms of schizophrenia is based on the change from Baseline in the PANSS Marder's negative symptoms factor score (in this document referred to as NSFS) to Week 12. Efficacy is also supported by the analysis of change from Baseline in the PSP Total score and the CGI-S to Week 12.
The PSP is a validated clinician-rated scale intended to reflect real-life situations that measures personal and social functioning in 4 domains: (a) socially useful activities, (b) personal and social relationships, (c) self-care, and (d) disturbing and aggressive behaviors. The score is based on the assessment of a patient's performance in the 4 domains. The PSP Total score is a single measurement of functioning ranging from 1 to 100, where a higher score represents better functioning. A score of 91 to 100 indicates excellent functioning in all 4 main areas; the patient is held in high consideration for their good qualities, copes adequately with life problems, and is involved in a wide range of interests and activities. A score of 1 to 10 indicates a lack of autonomy in basic functioning with extreme behaviors but without survival risk (score 6 to 10) or with survival risk (score 1 to 5). […] Review of the relevant scientific literature and the analysis of the psychometric properties of the 4 domains that result in the generation of the PSP Total score were supportive of the appropriateness and cross-cultural applicability of the use of the PSP in drug development for the indication of negative symptoms of schizophrenia The PSP was assessed at the timepoints described in Table 6. The changes from Baseline in the PSP Total score and individual domain scores after 12 weeks of treatment were exploratory efficacy endpoints in Study MIN-101C03, and the Total score was the key secondary efficacy endpoint and the PSP domain scores were exploratory endpoints in Study MIN-101C07.
The Efficacy data from Study Nos. 1 and 2 were pooled. The majority of patients in the pooled ITT population completed the DB period (502 patients overall, 66.3%), with similar rates in each treatment group (placebo: 69.8%, 32 mg Roluperidone: 65.3%, and 64 mg Roluperidone: 63.8%) (Table 12). The majority (62.7%) of those who completed the DB period entered the OL period. The most common reason for discontinuation during the DB period among patients overall was withdrawal of consent (15.6%), followed by adverse events (7.3%) and lack of efficacy (5.4%) (Table 12). […] Approximately twice as many patients in the Roluperidone groups (32 mg: 8.5%; 64 mg: 9.1%) discontinued due to adverse events compared with patients in the placebo group (4.3%). More patients in the placebo group discontinued due to lack of efficacy (6.7%) than in the Roluperidone groups (32 mg: 4.4%; 64 mg: 5.1%). The low number of patients who discontinued due to lack of efficacy or withdrawal of consent probably reflects a low level of worsening of positive symptoms.
The integrated analysis supporting the efficacy of Roluperidone as a treatment for the negative symptoms of schizophrenia in adults is presented below.

1H-Isoindol-1-one,2-[ [1-[2-(4-fluorophenyl)-2-oxoethyl]-4-piperidinyl]methyl]-2,3-dihydro-, hydrochloride, hydrate (1:1:2) [Roluperidone]
PSP Total Score change from Baseline, LS mean (SE) (32 mg, Week 4): 1.6 (0.52)
PSP Total Score change from Baseline, Mean (SD) (32 mg, Week 4): 1.5 (7.87)
PSP Total Score change from Baseline, Median (32 mg, Week 4): 0.0
PSP Total Score, Difference (95% CI) in LS mean (vs placebo) (32 mg, Week 4): 0.7
PSP Total Score change from Baseline, LS mean (SE) (32 mg, Week 8): 2.9 (0.62)
PSP Total Score change from Baseline, Mean (SD) (32 mg, Week 8): 3.6 (7.04)
PSP Total Score change from Baseline, Median (32 mg, Week 8): 2.0
PSP Total Score, Difference (95% CI) in LS mean (vs placebo) (32 mg, Week 8): 0.6
PSP Total Score change from Baseline, LS mean (SE) (32 mg, Week 12): 3.3 (0.71)
PSP Total Score change from Baseline, Mean (SD) (32 mg, Week 12): 3.5 (10.03)
PSP Total Score change from Baseline, Median (32 mg, Week 12): 2.0
PSP Total Score, Difference (95% CI) in LS mean (vs placebo) (32 mg, Week 12): 0.5
PSP Domain Disturbing and Aggressive Behavior, Change from Baseline (LS Means [SEM]) (32 mg, Week 12): −0.1 (0.04)
PSP Domain Personal and Social Relationships, Change from Baseline (LS Means [SEM]) (32 mg, Week 12): −0.3 (0.05)
PSP Domain Self-Care, Change from Baseline (LS Means [SEM]) (32 mg, Week 12): −0.3 (0.05)
PSP Domain Socially Useful Activities, Change from Baseline (LS Means [SEM]) (32 mg, Week 12): −0.3 (0.05)
PSP Total Score, Change from Baseline (LS Means [SEM]) (32 mg, Week 12): 3.3 (0.71)
PSP Total score, LS mean change from Baseline compared with placebo (32 mg, Week 12): 0.5
Patients with high improvement in PSP Total score (magnitude of change ≥10) (32 mg): 26%
Patients with moderate improvement in PSP Total score (magnitude of change 7-9) (32 mg): 7%
Patients with moderate or high improvement in PSP Total score, total (32 mg): 33%
Patients with 7-Point Improvement in PSP Total Score at Week 12, percent (32 mg): 33%
Number of Patients with 7-Point improvement in PSP Total Score at Week 12 (32 mg): 54/166
PSP Total Score change from Baseline, LS mean (SE) (64 mg, Week 4): 3.1 (0.52)
PSP Total Score change from Baseline, Mean (SD) (64 mg, Week 4): 3.1 (8.33)
PSP Total Score change from Baseline, Median (64 mg, Week 4): 1.0
PSP Total Score, Difference (95% CI) in LS mean (vs placebo) (64 mg, Week 4): 2.1
PSP Total Score change from Baseline, LS mean (SE) (64 mg, Week 8): 4.9 (0.61)
PSP Total Score change from Baseline, Mean (SD) (64 mg, Week 8): 4.8 (6.61)
PSP Total Score change from Baseline, Median (64 mg, Week 8): 3.0
PSP Total Score, Difference (95% CI) in LS mean (vs placebo) (64 mg, Week 8): 2.6
PSP Total Score change from Baseline, LS mean (SE) (64 mg, Week 12): 6.4 (0.69)
PSP Total Score change from Baseline, Mean (SD) (64 mg, Week 12): 6.4 (10.32)
PSP Total Score change from Baseline, Median (64 mg, Week 12): 4.5
PSP Total Score, Difference (95% CI) in LS mean (vs placebo) (64 mg, Week 12): 3.6
PSP Domain Disturbing and Aggressive Behavior, Change from Baseline (LS Means [SEM]) (64 mg, Week 12): −0.0 (0.04)
PSP Domain Personal and Social Relationships, Change from Baseline (LS Means [SEM]) (64 mg, Week 12): −0.4 (0.05)
PSP Domain Self-Care, Change from Baseline (LS Means [SEM]) (64 mg, Week 12): −0.3 (0.05)
PSP Domain Socially Useful Activities, Change from Baseline (LS Means [SEM]) (64 mg, Week 12): −0.4 (0.05)
PSP Total Score, Change from Baseline (LS Means [SEM]) (64 mg, Week 12): 6.4 (0.69)
PSP Total score, LS mean change from Baseline compared with placebo (64 mg, Week 12): 3.6
Patients with high improvement in PSP Total score (magnitude of change ≥10) (64 mg): 36%
Patients with moderate improvement in PSP Total score (magnitude of change 7-9) (64 mg): 7%
Patients with moderate or high improvement in PSP Total score, total (64 mg): 43%
Patients with 7-Point Improvement in PSP Total Score at Week 12, percent (64 mg): 43%
Number of Patients with 7-Point improvement in PSP Total Score at Week 12 (64 mg): 76/176
PSP Total Score change from Baseline, Mean (SD) (Roluperidone Total, Week 4): 2.3 (8.14)
PSP Total Score change from Baseline, Median (Roluperidone Total, Week 4): 0.0
PSP Total Score change from Baseline, Mean (SD) (Roluperidone Total, Week 8): 4.2 (6.84)
PSP Total Score change from Baseline, Median (Roluperidone Total, Week 8): 3.0
PSP Total Score change from Baseline, Mean (SD) (Roluperidone Total, Week 12): 5.0 (10.27)
PSP Total Score change from Baseline, Median (Roluperidone Total, Week 12): 3.0
